Molecular target: T1, TLR8 (Homo sapiens, UniProt Q9NR97)
T1 construct: endogenous in cells; host or cells: THP-1 (PMA-differentiated)
T1 sequence (Q9NR97 27-1041): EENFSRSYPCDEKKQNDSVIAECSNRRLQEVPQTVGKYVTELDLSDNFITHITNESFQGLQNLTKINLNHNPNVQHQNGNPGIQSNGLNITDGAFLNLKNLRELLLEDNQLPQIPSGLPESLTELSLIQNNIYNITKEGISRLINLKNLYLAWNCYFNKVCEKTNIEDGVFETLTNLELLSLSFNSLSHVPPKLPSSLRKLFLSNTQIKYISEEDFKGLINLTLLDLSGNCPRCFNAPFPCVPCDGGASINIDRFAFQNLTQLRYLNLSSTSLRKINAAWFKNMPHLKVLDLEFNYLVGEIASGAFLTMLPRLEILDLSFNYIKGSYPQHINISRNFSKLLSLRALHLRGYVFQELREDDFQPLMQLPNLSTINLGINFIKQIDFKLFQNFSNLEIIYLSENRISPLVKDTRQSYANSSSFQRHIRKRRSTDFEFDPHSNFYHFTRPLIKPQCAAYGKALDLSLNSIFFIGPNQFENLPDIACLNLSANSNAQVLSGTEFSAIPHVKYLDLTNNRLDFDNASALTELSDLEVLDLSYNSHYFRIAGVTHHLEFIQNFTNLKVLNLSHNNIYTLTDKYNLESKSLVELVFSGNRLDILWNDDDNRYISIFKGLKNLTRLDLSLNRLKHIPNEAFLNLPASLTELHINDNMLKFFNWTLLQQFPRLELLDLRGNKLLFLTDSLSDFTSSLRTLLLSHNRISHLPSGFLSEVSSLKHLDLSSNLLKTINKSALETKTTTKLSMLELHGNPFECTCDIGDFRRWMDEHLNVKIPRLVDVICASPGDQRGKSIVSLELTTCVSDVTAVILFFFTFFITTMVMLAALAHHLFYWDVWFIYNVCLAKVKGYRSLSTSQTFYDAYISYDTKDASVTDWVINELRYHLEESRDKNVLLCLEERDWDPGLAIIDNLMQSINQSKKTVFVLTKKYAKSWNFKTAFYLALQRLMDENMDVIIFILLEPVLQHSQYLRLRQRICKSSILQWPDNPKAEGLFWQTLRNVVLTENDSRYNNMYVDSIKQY
Assay: TNF-α secretion ELISA after TLR8 agonist TL8-506 in PMA-differentiated THP-1 cells
Format: cell-based
Details: SK01, TL8-506 4 h
Procedure: FIGS. 5A to 5C show the inhibitory activities of SK01 on TLRs (TLR1/2, TLR2/6 and TLR4) exposed to the cell surface, and FIGS. 5D to 5G show the inhibitory activities of SK01 against endosome TLRs (TLR3, TLR7, TLR8 and TLR9), wherein RAW 264.7 cells were treated at predetermined concentrations with a negative control, a positive control (only ligand), additional positive control (ligand and 0.25% DMSO), or SK01 for 1 hour, and then stimulated with TLR-specific agonists for 4 or 24 hours (TLR3 only), a human monocytic cell line (THP-1) was used for TLR8 and THP-1 cells were treated with phorbol 12-myristate 13-acetate for 48 hours to induce cell differentiation, then treated with SK01 for 1 hour, and was treated with the TLR8 agonist TL8-506 for 4 hours, and the level of TNF-α secretion was measured by ELISA.

SMILES: Cc1c(C)n(CCN(C)C)c2nc3c(c(N)c12)CCCCC3 [SK01, 1-(2-(dimethylamino)ethyl)-2,3-dimethyl-1,5,6,7,8,9-hexahydrocyclohepta[b]pyrrolo[3,2-e]pyridin-4-amine]
- activity against TLR8: no activity
